Assay results: BindingDB's records for patent US12391702 (Bristol-Myers Squibb, 2025)

Biological target: T1, Interleukin-1 receptor-associated kinase 4 (Homo sapiens, UniProt Q9NWZ3)
T1 sequence (Q9NWZ3 whole entry): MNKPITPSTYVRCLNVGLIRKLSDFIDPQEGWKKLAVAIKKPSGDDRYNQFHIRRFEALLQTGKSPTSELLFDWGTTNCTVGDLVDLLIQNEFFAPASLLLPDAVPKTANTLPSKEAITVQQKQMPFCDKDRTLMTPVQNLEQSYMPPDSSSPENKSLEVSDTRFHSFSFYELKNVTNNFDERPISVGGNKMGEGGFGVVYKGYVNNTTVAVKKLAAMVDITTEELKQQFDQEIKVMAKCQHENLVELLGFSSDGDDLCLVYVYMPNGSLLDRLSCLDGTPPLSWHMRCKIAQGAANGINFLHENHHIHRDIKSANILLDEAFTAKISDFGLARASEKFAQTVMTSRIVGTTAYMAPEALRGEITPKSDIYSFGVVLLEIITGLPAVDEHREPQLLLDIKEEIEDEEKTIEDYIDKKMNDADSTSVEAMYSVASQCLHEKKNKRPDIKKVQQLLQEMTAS
Test: IRAK4 Inhibition Assay
Method: The assays were performed in U-bottom 384-well plates. The final assay volume was 30 μL prepared from 15 μL additions of enzyme and substrates (fluoresceinated peptide and ATP) and test compounds in assay buffer (20 mM HEPES pH 7.2, 10 mM MgCl2, 0.015% Brij 35 and 4 mM DTT). The reaction was initiated by the combination of IRAK4 with substrates and test compounds. The reaction mixture was incubated at room temperature for 60 min. and terminated by adding 45 μL of 35 mM EDTA to each sample. The reaction mixture was analyzed on the Caliper LABCHIP 3000 (Caliper, Hopkinton, MA) by electrophoretic separation of the fluorescent substrate and phosphorylated product. Inhibition data were calculated by comparison to no enzyme control reactions for 100% inhibition and vehicle-only reactions for 0% inhibition. The final concentrations of reagents in the assays are ATP, 500 μM; FL-IPTSPITTTYFFFKKK peptide 1.5 μM; IRAK4, 0.6 nM; and DMSO, 1.6%.

An IC50 of 1180 nM was found for `CC(C)Nc1c(C(=O)NC[C@@H](F)C(C)(C)O)cnc2c1Oc1cc(C#N)ccc1O2` [US12391702, Example 1] in this work.
